logP | SMILES
0.78 | CCCCOCc1cc(=O)c(O)co1
-0.59 | Cc1cc(=O)c(O)co1
-0.66 | NCCn1ccc(=O)c(O)c1
0.2 | CCn1cccc(O)c1=O
0.63 | CCc1occc(=O)c1O
0.69 | CCCn1cccc(O)c1=O
-0.92 | O=c1ccocc1O
0.3 | CCCOCc1cc(=O)c(O)co1
1.07 | CCc1oc(C)cc(=O)c1O
0.44 | Cc1cc(=O)c(O)c(C)o1
-0.38 | CCOCc1cc(=O)c(O)co1
-0.62 | COCc1cc(=O)c(O)co1

— the OPERA property sets (Mansouri et al. 2018)
